Common to all, as to test: growth of human tumour cells (NCI), 48 h
Test [1] deals with SN12C renal.
In test [2] the test system is UACC-257 melanoma.
The test system of test [3] is OVCAR-4 ovarian.
The subject of test [4] is M14 melanoma.
The test system of test [5] is A549 NSCLC.
In test [6] the test system is SW-620 colon.
Test [7] concerns NCI-H226 lung.
For test [8], the system named is COLO 205 colon.
For test [9], the system named is HOP-92 NSCLC.

TGI and GI50 data for 14 compounds are collected here from PubChem BioAssay (NCI).

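Briefly, cells in 96-well plates were exposed to five compound concentrations for 48 h, and endpoints were estimated by linear interpolation. GI50 is the concentration that inhibits growth by half. At the TGI there is no net growth.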 Bounds are passed on as bounds.

Take `OCC(O)C(OC1OC(CO)C(O)C(O)C1O)c1nn(-c2ccccc2)c2nc3cc(Cl)c(Cl)cc3cc12` (stereo unspecified): the TGI in [1], in test [2], in [3] and in test [4] was greater than 100 µM throughout.

On to `Cc1ccc(S(=O)(=O)NNC(=O)c2sc(-c3nc(C)c(C(=O)NNS(=O)(=O)c4ccc(C)cc4)s3)nc2C)cc1`, for which the TGI in test [5], in test [1], in [2], in test [6], in test [7] and in [8] was greater than 100 µM in each case. Besides, the TGI in test [4] and in test [9] was greater than 100 µM each time.

For the compound `O=C(O)C12C3C4C1C1C2C3C1(Br)C41OCCO1` (stereo unspecified), the TGI in test [5], in [2], in test [6], in test [8] and in test [9] was greater than 100 µM each time.

On to `NNC(=O)CCC(=O)Nc1cc(Cl)c(Cl)cc1Cl`, for which the TGI in test [5], in test [1], in [2], in test [6], in [3] and in [7] was greater than 100 µM in each case. Besides, the TGI in [8], in test [4] and in test [9] was greater than 100 µM throughout.

For the compound `COc1ccc(C2=NN(C(=O)COc3ccc(Cl)cc3)C(O)(c3ccc(Cl)cc3)C2)cc1` (stereo unspecified), the TGI in test [5], in test [1], in test [2], in test [6], in [3] and in [7] was greater than 100 µM in each case. Further, the TGI in test [8], in test [4] and in test [9] was greater than 100 µM throughout.

`N#C/C(=C1\NN=C(N)C(c2ccc(Cl)cc2)=C1O)c1ccc(Cl)cc1`: the TGI in [5], in [1], in test [2], in [6], in test [3] and in test [7] was greater than 100 µM each time. The TGI in [8], in test [4] and in test [9] was greater than 100 µM throughout.

For the compound `COC(=O)C1C2C=CC(C2)C1(C(=O)OC)S(=O)CC12CCC(CC1O)C2(C)C` (stereo unspecified), the TGI in test [5] is greater than 100 µM; in test [1], greater than 100 µM; in [2] it was greater than 100 µM; in [6], 37.6 µM; in test [3], greater than 100 µM; in test [7], greater than 100 µM. The TGI in test [8], in test [4] and in test [9] was greater than 100 µM each time.

In the case of `O=C1CC(c2ccc3c(c2)OCO3)Nc2cc3c(cc21)OCO3` (stereo unspecified), the GI50 in test [5] is 0.6 µM; in test [1], 0.788 µM; in test [2] it was 21.3 µM; in test [6], 0.357 µM; in [3], 1.04 µM; in [7] it was 13.9 µM. The GI50 in [8] is 0.282 µM. In addition, the TGI in test [5] was greater than 100 µM; in [1], greater than 100 µM; in test [2] it was 83 µM; in [6] it was greater than 100 µM; in [3] it was greater than 100 µM; in test [7] it was greater than 100 µM. The compound also gave a TGI in test [8] of 0.885 µM.

For the compound `CCCCCCCCC(=O)N(C)C1C2CN3CCC(O2)C13` (stereo unspecified), the TGI in test [5], in [1], in test [2], in test [6], in test [3] and in test [7] was greater than 100 µM throughout. The TGI in test [8] and in test [4] was greater than 100 µM throughout.

In the case of `[C-]#[O+].[C-]#[O+].[C-]#[O+].[C-]#[O+].[Ir].[Ir].[O-]c1ccc2ccccc2c1C=Nc1ccc(N=Cc2c([O-])ccc3ccccc23)cc1`, the GI50 in [5], in [1], in test [2], in test [6], in [3] and in test [7] was greater than 100 µM throughout. Besides, the GI50 is greater than 100 µM in [8], greater than 100 µM in [4] and 40 µM in [9]. Further, the TGI in test [5], in [1], in test [2], in test [6], in test [3] and in test [7] was greater than 100 µM in each case. In addition, the TGI in test [8], in test [4] and in [9] was greater than 100 µM each time.

Regarding `O/N=C/c1cc2c(cc1Br)OCO2`, the TGI in [5], in test [1], in test [2], in [6], in [3] and in test [7] was greater than 100 µM each time. Also, the TGI in test [8] and in test [4] was greater than 100 µM each time.

In the case of `CC1CC(c2cccc3c2OCO3)=Nc2ccccc2S1` (stereo unspecified), the TGI in test [5], in [1], in test [2], in test [6], in [3] and in test [7] was greater than 100 µM in each case. The TGI in test [8], in [4] and in test [9] was greater than 100 µM each time.

In the case of `O=C(O)CCSCCCN1C(=O)c2ccccc2C1=O`, the TGI in test [5], in test [1], in [2], in test [6], in test [3] and in test [7] was greater than 100 µM throughout. For the same compound, the TGI in test [8] and in [9] was greater than 100 µM throughout.

On to `O=c1c2cccc3cccc(c4oc5c6cccc7cccc(c(=O)c5c14)c76)c32`, for which the TGI in [5] was 25.4 µM; in test [1] it was 18.2 µM; in test [2], 30 µM; in test [6] it was 17 µM; in [7] it was greater than 31.6 µM; in test [8], 15.6 µM. Moreover, the figures for the TGI in test [4] and in [9] were 17.7 µM and 15.2 µM, respectively.
